{"source": "paper PMC9156754", "about": "“Functional and phylogenetic analysis of TetX variants to design a new classification system” (Communications Biology, 2022)", "key": {"E. coli 25922": {"tested_on": "T1, E. coli 25922", "T1 construct": "ATCC 25922", "experiment": "microbe, parasite or virus in culture", "design": "broth microdilution MIC, growth of E. coli, CLSI guidelines", "conditions": "Escherichia coli", "method": "(§1) The MICs of three antibiotics (tetracycline, minocycline, and tigecycline) for strains were determined using the microbroth dilution method and the results were interpreted according to the CLSI guidelines. For tigecycline, the breakpoint was interpreted according to the FDA criteria (susceptible, ≤2 mg/L; intermediate, 4 mg/L; resistant, ≥8 mg/L)[9]. E. coli strain ATCC 25922 was used as a quality control. The tet(X2) (WP_063856436.1), tet(X3) (WP024160783), and tet(X4) (WP094309310) genes were amplified from dairy cows’ clinical isolates[25] by PCR with primers listed in Supplementary Table 1. Then these genes were constructed into pBAD-18Kan vector and IPTG-inducible pET28b vector, respectively. The recombinant plasmids pBAD-18-tet(X2), pBAD-18-tet(X3) and pBAD-18-tet(X4) were transformed into E. coli BW25113 and followed by antimicrobial susceptibility tests. In addition, the recombinant plasmids pET28-6×His-tet(X2), pET28-6×His-tet(X3) and pET28-6×His-tet(X4) were transformed into E. coli strain BL21(DE3) for protein purification. Point mutations were introduced into the tet(X2) gene, tet(X3) gene and tet(X4) by using the QuickChange (Stratagene) commercial kit, following the manufacturer’s instructions, and confirmed by sequencing. Primers used in mutagenesis are also listed in Supplementary Table 1."}, "[1]": {"tested_on": "T2, Escherichia coli Vector control", "T2 construct": "BW25113 empty pBAD18-Kan vector", "experiment": "microbe, parasite or virus in culture", "design": "broth microdilution MIC, growth of E. coli, CLSI guidelines", "conditions": "empty pBAD18 vector", "method": "as §1"}, "[2]": {"tested_on": "CN(C)c1cc(NC(=O)CNC(C)(C)C)c(O)c2c1C[C@H]1C[C@H]3[C@H](N(C)C)C(=O)C(C(N)=O)=C(O)[C@@]3(O)C(=O)C1=C2O", "experiment": "purified protein", "type": "biochemical, Escherichia coli", "conditions": "0.1 M TAPS pH 8.5, 5 mM MgCl2, 500 µM NADPH, ambient temperature"}}, "note": "Like-named read-outs stand apart in the source and are kept apart here."}
{"compound": "CN(C)c1ccc(O)c2c1C[C@H]1C[C@H]3[C@H](N(C)C)C(O)=C(C(N)=O)C(=O)[C@@]3(O)C(O)=C1C2=O", "note": "[minocycline]", "values": [{"measurement": "MIC", "setting": "E. coli 25922; read-out: MIC (mg/L) / MIN", "value": 0.25, "unit": "mg/L"}, {"measurement": "MIC", "setting": "[1]; read-out: MIC (mg/L) / MIN", "value": 1, "unit": "mg/L"}]}
{"compound": "CN(C)c1cc(NC(=O)CNC(C)(C)C)c(O)c2c1C[C@H]1C[C@H]3[C@H](N(C)C)C(=O)C(C(N)=O)=C(O)[C@@]3(O)C(=O)C1=C2O", "note": "[tigecycline]", "values": [{"measurement": "MIC", "setting": "E. coli 25922; read-out: MIC (mg/L) / TGC", "value": 0.25, "unit": "mg/L"}, {"measurement": "MIC", "setting": "[1]; read-out: MIC (mg/L) / TGC", "value": 0.5, "unit": "mg/L"}]}
{"compound": "CN(C)[C@@H]1C(O)=C(C(N)=O)C(=O)[C@@]2(O)C(O)=C3C(=O)c4c(O)cccc4[C@@](C)(O)[C@H]3C[C@@H]12", "note": "[tetracycline]", "values": [{"measurement": "MIC", "setting": "E. coli 25922; read-out: MIC (mg/L) / TET^a", "value": 1, "unit": "mg/L"}, {"measurement": "MIC", "setting": "[1]; read-out: MIC (mg/L) / TET^a", "value": 2, "unit": "mg/L"}]}
{"compound": "Tet(X4) (Escherichia coli)", "values": [{"measurement": "Km", "setting": "[2]", "value": "1.73 ± 0.09", "unit": "µM"}, {"measurement": "kcat", "setting": "[2]", "value": "2 ± 0.02", "unit": "s⁻¹"}, {"measurement": "kcat/Km", "setting": "[2]", "value": "1.16e+06", "unit": "M⁻¹ s⁻¹"}]}
